Laboratory results taken from article PMC12528448, “Resistance to CDK7 inhibitors directed by acquired mutation of a conserved residue in cancer cells” (The EMBO Journal, 2025).
pIC50: −log10 of the molar value. Several values for one entry are separate records, joined by “and”; a condition that tells them apart may be missing. Equal entries are not always repeated. Entries after “also recorded” stand apart in the source; their conditions may differ.

What was measured:
[1] = tested on: 22Rv1 CDK7-D97N CL3 cells; test: Growth assay (SRB), 22Rv1 homozygous CDK7-D97N clone CL3; type: cell-based; conditions: Homo sapiens; 22Rv1 CDK7-D97N complete knock-in clone CL3; Figure R1; read-out: IC50, growth inhibition
Experimental: (§1) To determine the IC50 of drug treatments on growth, cells were seeded in 96-well culture plates. Two days after seeding, the cells were treated with increasing concentrations of drugs and incubated for 4 days. Cell number was determined using the SRB assay (Skehan et al, [1990]), and IC50 values were calculated using non-linear regression curve fitting in GraphPad Prism v10. For all other growth experiments, cells were seeded into 96-well plates, and appropriate drugs were added 2 days after seeding. Cells were then incubated in an IncuCyte Zoom live-cell imager, with cell confluency measured every 6 h. Cell doubling times were determined by non-linear curve fitting (exponential growth equation) in GraphPad Prism v10.
Alt-R^TM S.p. Cas9 nuclease V3, Alt-R CRISPR-Cas9 crRNA, TracrRNA and the donor templates were obtained from Integrated DNA Technologies. […] Cells were treated with 0.7 µM of Alt-R HDR Enhancer V2 to improve HRD efficiency. Sequences of the CRISPRs in the crRNA and the donor templates are shown in the Reagents and tools table. Donor templates were designed to include non-coding substitutions to aid genome DNA PCR for identifying knock-in events and to facilitate cloning; these substitutions are noted in the Reagents and tools table.

[2] = tested on: PolII CTD Ser5 and CDK2 Thr160 phosphorylation in 22Rv1 cells; test: Immunoblotting of CDK7 targets, 22Rv1; type: cell-based, human
Experimental: (§2) Whole-cell lysates were prepared in RIPA buffer (Sigma-Aldrich), supplemented with protease and phosphatase inhibitor cocktails (Roche). Protein sample concentrations were determined using the Pierce BCA Protein Assay kit (ThermoFisher Scientific). […] PolII CTD phosphorylation antibodies (P-Ser2 (ab5095) and P-Ser5 (ab5131), used at 1:10,000 dilution), as well as total PolII (ab817; 1:2000 dilution) and β-actin (ab6276; 1:100,000 dilution) were purchased from Abcam.

[3] = tested on: PolII CTD Ser5 and CDK2 Thr160 phosphorylation in 22Rv1-SamR cells; test: Immunoblotting of CDK7 targets, 22Rv1-SamR; type: cell-based, human; conditions: for Relative Density P-Ser5 / Relative Density ß-actin: SamR
Experimental: as §2

[4] = tested on: MCF7-CDK4^D99N (CL1) cells; test: IncuCyte confluency growth, homozygous CDK4 D99N clone CL1; type: cell-based, human
Experimental: as §1

[5] = tested on: P-Ser807/811 RB1, RB1, CDK4, β-actin in MCF7 cells; test: Immunoblotting after Palbociclib, MCF7; type: cell-based, human; conditions: 48 h
Experimental: (§3) Whole-cell lysates were prepared in RIPA buffer (Sigma-Aldrich), supplemented with protease and phosphatase inhibitor cocktails (Roche). Protein sample concentrations were determined using the Pierce BCA Protein Assay kit (ThermoFisher Scientific). In all, 10–20 µg of total protein was loaded for each sample and resolved on 4–15% Mini-PROTEAN TGX Precast Protein Gels (BIO-RAD). Immunoblotting was performed as described (Patel et al, [2018]), using antibodies diluted 1:1000 for P-CDK2 (Thr160; 2561S), CDK2 (2546S), P-Rb (Ser807/811; 9308), Rb (9309), CDK7 (2916) and CDK12 (11973S), from Cell Signalling Technology. PolII CTD phosphorylation antibodies (P-Ser2 (ab5095) and P-Ser5 (ab5131), used at 1:10,000 dilution), as well as total PolII (ab817; 1:2000 dilution) and β-actin (ab6276; 1:100,000 dilution) were purchased from Abcam. CCNK antibody (Thermofisher A301-939A) was used at a 1:1000 dilution. Band intensities were quantified using ImageJ (Schneider et al, [2012]).

[6] = tested on: P-Ser807/811 RB1, RB1, CDK4, β-actin in MCF7-CDK4-D99N CL1 cells; test: Immunoblotting after Palbociclib, MCF7-CDK4-D99N CL1; type: cell-based, human; conditions: homozygous mutant clone CL1 vs parental MCF7; 48 h
Experimental: as §3

[7] = 22Rv1, 5nM SY1365, Vehicle = 1.00
[8] = 22Rv1, 50nM SY1365, Vehicle = 1.00
[9] = homozygous mutant clone, 1 µM Palbociclib

## CC(C)c1cnn2c(NCc3ccccc3)cc(NC[C@H]3CCNC[C@@H]3O)nc12 [Samuraciclib]
[1]
  pIC50: 5.85

## CN(C)C/C=C/C(=O)Nc1ccc(C(=O)N[C@@]2(C)CCC[C@@H](Nc3ncc(Cl)c(-c4c[nH]c5ccccc45)n3)C2)nc1 [SY-1365]
[2]; [7]
  Relative Density P-Ser2: 1.04 and 0.55 and 0.68
  Relative Density P-Ser5: 0.62 and 1.03
  Relative Density ß-actin: 0.99 and 1.00
[2]; [8]
  Relative Density P-Ser5: 0.61 and 0.64 and 1.06
  Relative Density ß-actin: 1.04 and 0.98 and 1.03
[3]; 22Rv1-SamR, 24 h, immunoblot
  CDK2 phosphorylation at Thr160: significant reduction
  PolII CTD Ser5 phosphorylation: significantly lower; also recorded: significant reduction
[3]; 5nM SY1365, Vehicle = 1.00
  Relative Density P-Ser5: 0.61 and 0.57 and 0.37
  Relative Density ß-actin: 1.11 and 1.02 and 0.97
[3]; 50nM SY1365, Vehicle = 1.00
  Relative Density P-Ser5: 0.54 and 0.49 and 0.41
  Relative Density ß-actin: 1.10 and 1.08 and 1.01

## CC(=O)c1c(C)c2cnc(Nc3ccc(N4CCNCC4)cn3)nc2n(C2CCCC2)c1=O [Palbociclib]
[4]; MCF7 CDK4 D99N/D99N CL1, 50nM Palbociclib, 0 Hours
  % Confluency: 4.47% and 7.41% and 8.54%
[4]; MCF7 CDK4 D99N/D99N CL1, 50nM Palbociclib, 12 Hours
  % Confluency: 6.57% and 10.81% and 12.65%
[4]; MCF7 CDK4 D99N/D99N CL1, 50nM Palbociclib, 24 Hours
  % Confluency: 7.94% and 14.04% and 16.28%
[4]; MCF7 CDK4 D99N/D99N CL1, 50nM Palbociclib, 36 Hours
  % Confluency: 9.96% and 16.26% and 19.65%
[4]; MCF7 CDK4 D99N/D99N CL1, 50nM Palbociclib, 60 Hours
  % Confluency: 16.05% and 25.67% and 31.53%
[4]; MCF7 CDK4 D99N/D99N CL1, 50nM Palbociclib, 72 Hours
  % Confluency: 20.59% and 33.83% and 40.66%
[4]; MCF7 CDK4 D99N/D99N CL1, 100nM Palbociclib, 0 Hours
  % Confluency: 5.11% and 7.96% and 8.92%
[4]; MCF7 CDK4 D99N/D99N CL1, 100nM Palbociclib, 12 Hours
  % Confluency: 7.75% and 11.79% and 13.54%
[4]; MCF7 CDK4 D99N/D99N CL1, 100nM Palbociclib, 24 Hours
  % Confluency: 9.54% and 15.28% and 17.18%
[4]; MCF7 CDK4 D99N/D99N CL1, 100nM Palbociclib, 36 Hours
  % Confluency: 11.96% and 17.72% and 19.72%
[4]; MCF7 CDK4 D99N/D99N CL1, 100nM Palbociclib, 48 Hours
  % Confluency: 15.88% and 21.63% and 24.14%
[4]; MCF7 CDK4 D99N/D99N CL1, 100nM Palbociclib, 60 Hours
  % Confluency: 19.72% and 27.06% and 29.56%
[4]; MCF7 CDK4 D99N/D99N CL1, 100nM Palbociclib, 72 Hours
  % Confluency: 25.72% and 33.76% and 37.42%
[4]; MCF7 CDK4 D99N/D99N CL1, 100nM Palbociclib, 84 Hours
  % Confluency: 33.55% and 43.80% and 49.43%
[4]; MCF7 CDK4 D99N/D99N CL1, 100nM Palbociclib, 96 Hours
  % Confluency: 44.26% and 56.08% and 62.73%
[4]; MCF7 CDK4 D99N/D99N CL1, 500nM Palbociclib, 0 Hours
  % Confluency: 4.28% and 7.96% and 8.62%
[4]; MCF7 CDK4 D99N/D99N CL1, 500nM Palbociclib, 12 Hours
  % Confluency: 6.49% and 11.80% and 13.50%
[4]; MCF7 CDK4 D99N/D99N CL1, 500nM Palbociclib, 24 Hours
  % Confluency: 8.63% and 14.98% and 17.24%
[4]; MCF7 CDK4 D99N/D99N CL1, 500nM Palbociclib, 36 Hours
  % Confluency: 10.70% and 16.67% and 18.25%
[4]; MCF7 CDK4 D99N/D99N CL1, 500nM Palbociclib, 48 Hours
  % Confluency: 13.35% and 19.15% and 19.83%
[4]; MCF7 CDK4 D99N/D99N CL1, 500nM Palbociclib, 60 Hours
  % Confluency: 17.13% and 22.40% and 23.57%
[4]; MCF7 CDK4 D99N/D99N CL1, 500nM Palbociclib, 72 Hours
  % Confluency: 21.34% and 27.28% and 27.86%
[4]; MCF7 CDK4 D99N/D99N CL1, 500nM Palbociclib, 84 Hours
  % Confluency: 27.05% and 33.32% and 34.40%
[4]; MCF7 CDK4 D99N/D99N CL1, 500nM Palbociclib, 96 Hours
  % Confluency: 34.72% and 41.63% and 42.47%
[4]; MCF7 CDK4 D99N/D99N CL1, 500nM Palbociclib, […] Hours
  % Confluency: 39.86%
[4]; MCF7 CDK4 D99N/D99N CL1, 1000nM Palbociclib, 0 Hours
  % Confluency: 4.23% and 6.28% and 8.65%
[4]; MCF7 CDK4 D99N/D99N CL1, 1000nM Palbociclib, 12 Hours
  % Confluency: 6.49% and 9.38% and 13.38%
[4]; MCF7 CDK4 D99N/D99N CL1, 1000nM Palbociclib, 24 Hours
  % Confluency: 8.61% and 12.05% and 16.81%
[4]; MCF7 CDK4 D99N/D99N CL1, 1000nM Palbociclib, 36 Hours
  % Confluency: 10.75% and 13.98% and 18.02%
[4]; MCF7 CDK4 D99N/D99N CL1, 1000nM Palbociclib, 48 Hours
  % Confluency: 13.71% and 15.18% and 19.26%
[4]; MCF7 CDK4 D99N/D99N CL1, 1000nM Palbociclib, 60 Hours
  % Confluency: 17.11% and 17.23% and 21.83%
[4]; MCF7 CDK4 D99N/D99N CL1, 1000nM Palbociclib, 72 Hours
  % Confluency: 21.46% and 20.52% and 24.80%
[4]; MCF7 CDK4 D99N/D99N CL1, 1000nM Palbociclib, 84 Hours
  % Confluency: 26.42% and 23.91% and 29.84%
[4]; MCF7 CDK4 D99N/D99N CL1, 1000nM Palbociclib, 96 Hours
  % Confluency: 33.28% and 29.04% and 35.27%
[4]; homozygous mutant clone vs MCF7
  Sensitivity of growth: substantially less sensitive
[4]; [9]
  Doubling time: 54.6 (95% CI = 48.4–62.1) h
  Increase of doubling time vs vehicle: twofold
[5]
  RB1 phosphorylation: significantly and dose-dependently reduced
[6]
  Reduction in RB1 phosphorylation Ser807/811: blunted; also recorded: less pronounced
